The values that follow come from patent EP1100539B1, “COMBINATION OF ACTIVE SUBSTANCES, ESPECIALLY FOR THE PROPHYLAXIS AND THERAPY OF ISCHAEMIC ORGANIC LESIONS AND REPERFUSION SYNDROMES” (Vascular Biotech GmbH, priority 1998, dated 2000).

This assay has as its system Meerschweinchenherzen. Put plainly: Working guinea pig heart, ischaemia/reperfusion with activated PMN and platelets (Versuchsgruppe 1). More on the design: species or system Meerschweinchen. The settings on record: for Herzleistung [% der initialen Leistung] / Interstitielles Volumen / Koronarfluß [% des Basalflusses]: flavone derivative 3*10^-5 M, individual hearts. As to the method:
Pathogene Wirkung von gleichzeitig aktivierten PMN und Thrombozyten im ischämischen Herzen. Als Studienobjekt dienten arbeitende, also Volumen gegen bestimmte Drucke auswerfende Meerschweinchenherzen. […] Thrombin, FMLP ([…]-Formyl-[…]) und […] Interaktion der Blutzellen mit dem koronaren Endothel bei diesen Versuchen. Tabelle 3: ^i Als Blutzellpräparate wurden eingesetzt: a) hochreine PMN (1-2*10^5/ml), […] Vorinkubation mit 100 μM […]) bzw. […] von PMN und TASS (bzw. T) in jeweils analogen Konzentrationen. Tabelle 3 gibt die unter […] bei […] von PMN und Thrombozyten (TASS = […] Vorinkubation mit 100μM […] = nicht […].

The mark [1] stands for this setting: PMN+T (platelets not preincubated with Acetylsalicylsäure).
Where [2] appears, read: PMN+TASS (platelets preincubated 1 h with 100 µM Acetylsalicylsäure, washed).
Where [3] appears, read: acute application of the flavonoid alone.
Setting [4] is: flavonoid applied in combination with Acetylsalicylsäure.

Where “and” joins values, the source holds several entries; their conditions need not be identical. Equal values may be shown once.

For the molecule Dihydroxyethylrutosid, under setting [1], the “Herzleistung [% der initialen Leistung]” value is 49 % der initialen Leistung and 58 % der initialen Leistung and 65 % der initialen Leistung and 72 % der initialen Leistung and 78 % der initialen Leistung and 74 % der initialen Leistung; the “Interstitielles Volumen” value was 144 µL/g and 186 µL/g and 151 µL/g and 157 µL/g and 165 µL/g; the “Koronarfluß [% des Basalflusses]” value was 49 % des Basalflusses and 51 % des Basalflusses and 39 % des Basalflusses and 47 % des Basalflusses and 64 % des Basalflusses and 69 % des Basalflusses. In addition, under setting [2], the “Herzleistung [% der initialen Leistung]” value was 93 % der initialen Leistung and 94 % der initialen Leistung and 86 % der initialen Leistung and 84 % der initialen Leistung and 89 % der initialen Leistung; the “Interstitielles Volumen” value was 98 µL/g and 104 µL/g and 95 µL/g and 115 µL/g and 107 µL/g and 109 µL/g; the “Koronarfluß [% des Basalflusses]” value is 102 % des Basalflusses and 107 % des Basalflusses and 98 % des Basalflusses and 93 % des Basalflusses and 95 % des Basalflusses and 89 % des Basalflusses. Besides, the “Verschlechterung der postischämischen Funktionsdaten (ΔP/Δt; interstitielles Volumen; Koronarfluß)” value under setting [3] is listed as “abgeschwächt”. The “Verschlechterung der postischämischen Funktionsdaten (ΔP/Δt; interstitielles Volumen; Koronarfluß)” value under setting [4] is on record as “vollständig aufgehoben”.
With Catechin [reference compound], under setting [1], the “Herzleistung [% der initialen Leistung]” value is 36 % der initialen Leistung and 39 % der initialen Leistung and 31 % der initialen Leistung and 26 % der initialen Leistung and 18 % der initialen Leistung; the “Interstitielles Volumen” value is 351 µL/g and 310 µL/g and 311 µL/g and 317 µL/g and 370 µL/g; the “Koronarfluß [% des Basalflusses]” value is 37 % des Basalflusses and 27 % des Basalflusses and 34 % des Basalflusses and 17 % des Basalflusses and 14 % des Basalflusses and 28 % des Basalflusses. Under setting [2], the “Herzleistung [% der initialen Leistung]” value is 75 % der initialen Leistung and 68 % der initialen Leistung and 67 % der initialen Leistung and 81 % der initialen Leistung (2×) and 77 % der initialen Leistung; the “Interstitielles Volumen” value was 145 µL/g and 157 µL/g and 163 µL/g and 148 µL/g and 166 µL/g; the “Koronarfluß [% des Basalflusses]” value was 88 % des Basalflusses and 78 % des Basalflusses and 82 % des Basalflusses and 79 % des Basalflusses and 85 % des Basalflusses. Also, under “ischaemic heart, Versuchsgruppe 1”, the “protektive Wirkung” value is “keine protektive Wirkung”.
For `O=c1c(O)c(-c2ccc(O)c(O)c2)oc2cc(O)cc(O)c12` [Quercetin], under setting [1], the “Herzleistung [% der initialen Leistung]” value is 66 % der initialen Leistung and 69 % der initialen Leistung and 58 % der initialen Leistung and 44 % der initialen Leistung and 70 % der initialen Leistung; the “Interstitielles Volumen” value was 159 µL/g and 178 µL/g and 181 µL/g and 185 µL/g and 162 µL/g; the “Koronarfluß [% des Basalflusses]” value is 61 % des Basalflusses and 49 % des Basalflusses (2×) and 55 % des Basalflusses and 62 % des Basalflusses and 40 % des Basalflusses. For the same molecule, under setting [2], the “Herzleistung [% der initialen Leistung]” value is 82 % der initialen Leistung and 86 % der initialen Leistung and 90 % der initialen Leistung and 85 % der initialen Leistung and 94 % der initialen Leistung; the “Interstitielles Volumen” value is 108 µL/g and 113 µL/g and 107 µL/g and 104 µL/g and 125 µL/g and 118 µL/g; the “Koronarfluß [% des Basalflusses]” value was 101 % des Basalflusses and 107 % des Basalflusses and 89 % des Basalflusses and 95 % des Basalflusses and 91 % des Basalflusses. Further, the “Verschlechterung der postischämischen Funktionsdaten (ΔP/Δt; interstitielles Volumen; Koronarfluß)” value under setting [3] is recorded as “abgeschwächt”. For the same molecule, under setting [4], the “Verschlechterung der postischämischen Funktionsdaten (ΔP/Δt; interstitielles Volumen; Koronarfluß)” value is given as “vollständig aufgehoben”.
